Source: ChEMBL document CHEMBL1156829 (Proc Natl Acad Sci U S A, 2008)
pEC50: −log10 of the molar value.

Legend:
Plasmodium falciparum [1] = assay: NOVARTIS: Inhibition of Plasmodium falciparum 3D7 (drug-susceptible) proliferation in erythrocyte-based infection assay; assay type: functional, organism-based; conditions: Plasmodium falciparum, 3D7
[2] = NOVARTIS: Cytotoxicity against human hepatocellular carcinoma cell line (Huh7); assay type: toxicity, cell-based, Huh-7; conditions: Huh7 cells (hepatocellular carcinoma cell line)
Plasmodium falciparum [3] = assay: NOVARTIS: Inhibition of Plasmodium falciparum W2 (drug-resistant) proliferation in erythrocyte-based infection assay; assay type: functional, organism-based; conditions: for pEC50: Plasmodium falciparum, W2, read-out: EC50

Row | Compound | pEC50 (Plasmodium falciparum [1]) | CC50 [2] [nM] | pEC50 (Plasmodium falciparum [3]) | EC50 (Plasmodium falciparum [3])
1 | CCCSCCCNC(=O)c1oc2c(c1C)-c1[nH]ncc1CC2 | < 5.94 | > 10000 | < 6.14 | 
2 | CCCn1c(C(CC)N2CCNCC2)nc2ccccc2c1=O (configuration not stated) | 6.55 | > 10000 | 6.20 | 
3 | COc1cc(CN2CCN(c3ccccn3)CC2)cc(I)c1O | < 5.00 | > 100000 | 5.31 | 
4 | c1ccc2c(c1)ccc1cc3cccc[n+]3cc12 | 5.86 | 37000 | 6.10 | 
5 | Brc1ccc(-c2n(Cc3ccccc3)c3ccccc3[n+]2Cc2ccccc2)o1 | 6.78 | 11000 | 6.59 | 
6 | COc1ccc(CNc2cc(-c3ccc(F)c(F)c3)nc3ccnn23)cc1 | 6.17 | > 100000 | 6.16 | 
7 | CCOc1ccc2nc3ccc([N+](=O)[O-])cc3c(NC)c2c1 | 6.65 | > 10000 | 6.27 | 
8 | CCC(CO)NCC(O)Cn1c2ccc(Cl)cc2c2cc(Cl)ccc21 (configuration not stated) | 6.43 | 20100 | 7.39 | 
9 | COC(=O)C1=C(C)NC(=Cc2cc(C)n(-c3cc(C)ccc3C)c2C)C1=O | 8.02 | > 100000 | 7.73 | 
10 | Cc1ccc(S(=O)(=O)NCCCCNc2ccnc3cc(Cl)ccc23)cc1 | 6.24 | > 9020 | > 7.69 | 
11 | COc1ccc(C(NC(=O)COc2ccccc2)c2cc(Cl)c3cccnc3c2O)cc1 (configuration not stated) | 5.45 | > 100000 | 6.04 | 
12 | CCN1CCN(CCN2C(=O)C3C(C(=O)Nc4ccc(C(C)C)cc4)C4C=CC3(O4)C2C(=O)NC2CCCCC2)CC1 (configuration not stated) | < 4.90 | > 100000 | 5.24 | 
13 | CCOc1ccccc1NC(=O)Cn1c(=O)n(Cc2ccccc2)c(=O)c2c(C)c(C(=O)N(C)C)sc21 | 6.05 | > 100000 | 6.42 | 
14 | CCN1CCN(Cc2c(O)ccc3c(=O)c(Oc4cccc(C)c4)c(C(F)(F)F)oc23)CC1 | 5.95 | > 100000 | 6.79 | 
15 | CCOC(=O)c1c(NC(=O)C(C)Sc2nnc(CNC(=O)c3ccco3)n2-c2cccc(Cl)c2)sc2c1CCCC2 (configuration not stated) | < 4.90 | > 100000 | 6.37 | 
16 | CCN1CCC(N2C[C@H](n3cc(C(=O)OC)nn3)C[C@H]2C(=O)NCc2cccc(C(F)(F)F)c2)CC1 | < 5.90 | > 10000 | < 6.25 | 
17 | COc1cc(NC(C)CCCN(Cc2ccc(F)cc2)C(=O)c2ccccc2F)c2ncccc2c1 (configuration not stated) | 6.16 | > 8740 | 6.19 | 
18 | O=C1CC(c2ccccc2)CC2=C1C(c1cc(F)ccc1F)Nc1ccccc1N2 (configuration not stated) | 5.99 | > 100000 | 6.51 | 
19 | O=C(NC1CCN(Cc2ccccc2)CC1)[C@@H](c1ccccc1)N1Cc2ccccc2C1=O | < 4.90 | > 100000 | 5.38 | 
20 | CCCCNC(=O)C(CC(C)C)N1C(=O)c2cc(NC(C)=O)ccc2NC(=O)[C@@H]1C (some centres not stated) | 7.55 | > 12800 | 7.17 | 
21 | CCCCCCN(C(=O)COCc1ccccc1)C(C)c1nc2ccccc2c(=O)n1-c1cccc(Cl)c1C (configuration not stated) | 5.93 | > 10000 | 6.22 | 
22 | O=C1C2=C(Nc3ccccc3SC2c2ccc(OCc3ccccc3)cc2)c2ccccc21 (configuration not stated) | 6.32 | > 100000 | 6.99 | 
23 | C#CC(C)(C)NS(=O)(=O)c1cc(-c2nnc(Nc3cccc(C)c3)c3ccccc23)ccc1C | 5.98 | > 10000 | < 5.90 | 

Row | Compound | pEC50 (Plasmodium falciparum [1]) | CC50 [2] [nM] | pEC50 (Plasmodium falciparum [3]) | EC50 (Plasmodium falciparum [3])
24 | CCCN(CCC)CCCNc1ccc(C(=O)Nc2cccc(OC)c2)cc1[N+](=O)[O-] | 6.80 | 24000 | 6.49 | 
25 | CCC(=O)N(C)CCCNc1ccnc2cc(Cl)ccc12 | 6.33 | > 100000 | 6.47 | 
26 | CC(C)C1N=C2c3ccccc3N=C(SCC(=O)Nc3cc(C(F)(F)F)ccc3Cl)N2C1=O (configuration not stated) | 5.23 | > 100000 | < 4.90 | 
27 | COC(=O)C[S+]([O-])c1ccccc1 (configuration not stated) | 6.19 | > 10000 | 6.27 | 
28 | Cc1cccc(NC(=O)CCCn2c(=O)c3cccn3c3ccccc32)c1C | 6.11 | > 100000 | 6.04 | 
29 | O=C(NCCCCNc1ccnc2cc(Cl)ccc12)C(c1ccccc1)c1ccccc1 | 6.14 | > 8210 | 6.36 | 
30 | Clc1ccc2c(c1)c(-c1ccccc1)nc1nnnn12 | < 5.90 | > 10000 | < 5.93 | 
31 | O=C(NNc1ccccc1F)C1CCC1 | 6.31 | > 10000 | 7.39 | 
32 | CC(=O)Nc1ccc2c(c1)C(=O)N(C(CC(C)C)C(=O)NCC(=O)O)[C@@H](CCC(=O)OCc1ccccc1)C(=O)N2 (some centres not stated) | 7.32 | > 10000 | < 6.30 | 
33 | Cc1nc([P+](c2ccccc2)(c2ccccc2)c2ccccc2)c(SCc2ccccc2)o1.[O-][Cl+3]([O-])([O-])[O-] | 6.34 | 68300 | 6.21 | 
34 | CC[n+]1c(/C=C/c2ccc(OC)cc2)ccc2ccccc21 | 6.96 | > 10000 | 7.07 | 
35 | O=C(Nc1ccc(F)c(F)c1)c1ccccc1[N+](=O)[O-] | < 6.04 | > 10000 | 5.97 | 
36 | CCOc1ccc(Nc2cc(C)nc(Nc3ccc(OCC)cc3)n2)cc1 | 6.98 | 9850 | 6.91 | 
37 | CC(CCc1ccccc1)NCC(O)c1cccc([N+](=O)[O-])c1 (configuration not stated) | 6.69 | 42500 | 7.84 | 
38 | Cc1ccc2oc(=O)c3cnn(CC(=O)Nc4ccc(F)cc4Cl)c3c2c1 | < 5.94 | > 10000 | < 5.90 | 
39 | CCOc1ccc(C(=O)C(C)[n+]2cc(-c3ccc(Cl)cc3)n3c2CCC3)cc1 (configuration not stated) | 5.83 | > 78300 | 6.01 | 
40 | Cc1nc2cc(-c3ccc(Br)cc3)nn2c(O)c1C | 5.56 | > 100000 |  | No fit
41 | CCCCC(=O)N(C)CCCNc1ccnc2cc(Cl)ccc12 | 6.91 | > 10000 | 6.81 | 
42 | Cc1nc(-c2ccncc2)nc(NCCNc2ccc(C(F)(F)F)cn2)c1Cl | 6.15 | > 10000 | < 5.90 | 
43 | Cc1cc(NCCN2CCCCC2)c2ccc3ccccc3c2n1 | 7.36 | 15600 | 7.09 | 
44 | CCC(C(=O)NCc1ccc(OC)c(OC)c1)n1nc(C)c2c(C)n(-c3ccc(C)cc3)nc2c1=O (configuration not stated) | 6.56 | > 100000 | 6.52 | 
45 | CC1CN(C(=O)C(Cc2c[nH]c3ccccc23)NC(=O)CCl)CCN1C(=O)Nc1ccccc1 (configuration not stated) | 6.54 | > 10000 | < 5.90 | 
46 | Cc1ccc(-c2cc(C)[n+](C)c(-c3ccc(C)cc3)c2)cc1 | 6.50 | 7520 | 6.12 | 

Row | Compound | pEC50 (Plasmodium falciparum [1]) | CC50 [2] [nM] | pEC50 (Plasmodium falciparum [3]) | EC50 (Plasmodium falciparum [3])
47 | CCOC(=O)c1cnc2c(OC)cccc2c1Nc1cc(C)c(Cl)cc1OC | 6.27 | > 10000 | < 5.91 | 
48 | FC(F)(F)c1cccc(Nc2nc3nonc3nc2Nc2ccc(Cl)cc2)c1 | < 5.88 | > 10000 | 5.79 | 
49 | CN1c2ccccc2N(C)C1c1ccc2c(c1)OCO2 | 5.95 | > 10000 | < 5.85 | 
50 | COCCOC(=O)NCc1ccc(Nc2c(C(C)(C)C)nc3cnccn23)cc1 | 6.99 | > 10000 | 7.81 | 
51 | O=C(C=Cc1ccccc1Cl)Nc1ccc(Oc2ccc3ccccc3c2Cl)c(Cl)c1 | 5.99 | > 100000 | < 4.90 | 
52 | CCC(C)NC(=O)c1cc(NC(=O)/C=C/c2ccc([N+](=O)[O-])cc2)ccc1N1CCN(c2ccccc2OC)CC1 (configuration not stated) | < 5.90 | 5550 | 7.27 | 
53 | Cc1ccc(F)cc1NC(=O)c1cc(Cl)ccc1Nc1ccccc1 | 6.72 | > 100000 | 6.94 | 
54 | Cc1cc(N2CCN(C)CC2)nc2ccc(NC(=O)c3ccc(Br)o3)cc12 | 5.77 | 53700 | 5.57 | 
55 | CCCCCCC[N+](CC)(CC)CCCCc1ccc(Cl)cc1 | 6.37 | > 10000 | 7.04 | 
56 | CCc1ccc(C(=O)N2CCCn3cccc3C2c2ccc(C(C)(C)C)cc2)cc1 (configuration not stated) | < 5.90 | > 10000 | 5.94 | 
57 | O=C(Nc1ccc2oc(-c3ccccc3F)nc2c1)c1ccc([N+](=O)[O-])o1 | < 4.90 | > 100000 | 5.90 | 
58 | CCn1c2ccccc2c2cc(C=NNC(=O)c3nnn(-c4nonc4N)c3-c3ccccc3)ccc21 | < 5.90 | > 10000 | < 6.12 | 
59 | COc1ccc(Cl)cc1-n1c(-c2cccnc2)n[nH]c1=S | 5.73 | > 10000 | < 5.90 | 
60 | CC1(c2ccccc2)CC(c2ccccc2)=Nc2nonc2N1 (configuration not stated) | 6.23 | > 10000 | 5.93 | 
61 | CC(C)CCNCC(O)Cn1c2ccccc2c2ccccc21 (configuration not stated) | 6.70 | 8060 | 7.49 | 
62 | CCOC(=O)c1cc(-c2ccc(OC)cc2)n(CCC(=O)Nc2cccc(C(C)=O)c2)c1C | 7.66 | > 100000 | 8.07 | 
63 | O=C(CN1CCN(C(=O)c2ccco2)CC1)Nc1ccccc1Br | 6.45 | > 100000 | 6.73 | 
64 | Cn1c(=O)n(C)c2cc(C=NN=c3[nH]cc(-c4ccccc4)s3)ccc21 | < 5.97 | > 10000 | < 5.90 | 
65 | CCN(CC)CCN1C(=O)c2ccccc2NC1c1ccc(Br)cc1 (configuration not stated) | 6.66 | 47800 | 7.17 | 
66 | CCCOC(=O)C1=C(C)NC2=C(C(=O)CC(c3ccc(OC)c(OC)c3)C2)C1c1cccc(Br)c1 (configuration not stated) | 6.49 | 21600 | 7.13 | 
67 | Cn1c2ccccc2c2nnc(NN=Cc3ccccn3)nc21 | 6.06 | > 10000 | 6.10 | 
68 | CCn1c2c(c(=N)c3ccccc31)CCC2 | 6.47 | > 100000 | 6.02 | 
69 | CCOC(=O)C1=C(C)NC(=Cc2cc(C)n(-c3ccc(C)cc3C)c2C)C1=O | 7.19 | > 100000 | 7.11 | 
